Measured values from PubChem BioAssay (NCI).
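Here, GI50 denotes the concentration required for 50% inhibition of growth. TGI is the concentration that stops growth completely.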

Columns and labels:
Test in all cases: growth of human tumour cells (NCI), 384-well format
IGROV1 ovarian = tested on: IGROV1 ovarian
HT29 colon = tested on: HT29 colon
SNB-75 CNS = tested on: SNB-75 CNS
HOP-62 NSCLC = tested on: HOP-62 NSCLC
PC-3 prostate = tested on: PC-3 prostate
MCF7 breast = tested on: MCF7 breast
T-47D breast = tested on: T-47D breast
KM12 colon = tested on: KM12 colon
M14 melanoma = tested on: M14 melanoma
A498 renal = tested on: A498 renal
HCT-15 colon = tested on: HCT-15 colon
EKVX NSCLC = tested on: EKVX NSCLC
HOP-92 NSCLC = tested on: HOP-92 NSCLC
SK-MEL-28 melanoma = tested on: SK-MEL-28 melanoma
786-0 renal = tested on: 786-0 renal
COLO 205 colon = tested on: COLO 205 colon
SK-MEL-5 melanoma = tested on: SK-MEL-5 melanoma
HCC-2998 colon = tested on: HCC-2998 colon
HL-60(TB) leukemia = tested on: HL-60(TB) leukemia
SNB-19 CNS = tested on: SNB-19 CNS
ACHN renal = tested on: ACHN renal
SF-295 CNS = tested on: SF-295 CNS
MDA-MB-468 breast = tested on: MDA-MB-468 breast
NCI-H460 NSCLC = tested on: NCI-H460 NSCLC
SN12C renal = tested on: SN12C renal
MOLT-4 leukemia = tested on: MOLT-4 leukemia
NCI/ADR-RES ovarian = tested on: NCI/ADR-RES ovarian
A549 NSCLC = tested on: A549 NSCLC
NCI-H226 lung = tested on: NCI-H226 lung
TK-10 renal = tested on: TK-10 renal
MDA-MB-435 melanoma = tested on: MDA-MB-435 melanoma
MALME-3M melanoma = tested on: MALME-3M melanoma
SW-620 colon = tested on: SW-620 colon
RPMI-8226 leukemia = tested on: RPMI-8226 leukemia
CAKI-1 renal = tested on: CAKI-1 renal
DU-145 prostate = tested on: DU-145 prostate
NCI-H322M lung = tested on: NCI-H322M lung
OVCAR-4 ovarian = tested on: OVCAR-4 ovarian
CCRF-CEM leukemia = tested on: CCRF-CEM leukemia
SF-268 CNS = tested on: SF-268 CNS
NCI-H23 lung = tested on: NCI-H23 lung
SF-539 CNS = tested on: SF-539 CNS
UO-31 renal = tested on: UO-31 renal
SR leukemia = tested on: SR leukemia
HS 578T breast = tested on: HS 578T breast
OVCAR-3 ovarian = tested on: OVCAR-3 ovarian
UACC-257 melanoma = tested on: UACC-257 melanoma
BT-549 breast = tested on: BT-549 breast
NCI-H522 lung = tested on: NCI-H522 lung
OVCAR-8 ovarian = tested on: OVCAR-8 ovarian
OVCAR-5 ovarian = tested on: OVCAR-5 ovarian
K-562 leukemia = tested on: K-562 leukemia
LOX IMVI melanoma = tested on: LOX IMVI melanoma
MDA-MB-231 breast = tested on: MDA-MB-231 breast
UACC-62 melanoma = tested on: UACC-62 melanoma
RXF 393 renal = tested on: RXF 393 renal
SK-OV-3 ovarian = tested on: SK-OV-3 ovarian

`CC(C)(O)c1coc(S(=O)(=O)/N=C(\O)Nc2c3c(cc4c2CCC4)CCC3)c1` gave a GI50 (IGROV1 ovarian) of over 100 µM, a TGI (IGROV1 ovarian) of over 100 µM and a GI50 (HT29 colon) of over 100 µM. For the same molecule, the TGI (HT29 colon) was over 100 µM, the GI50 (SNB-75 CNS) was over 100 µM and the TGI (SNB-75 CNS) was over 100 µM. It also gave a GI50 (HOP-62 NSCLC) of over 100 µM, a TGI (HOP-62 NSCLC) of over 100 µM and a GI50 (PC-3 prostate) of over 100 µM. The TGI (PC-3 prostate) was over 100 µM, the GI50 (MCF7 breast) was over 100 µM and the TGI (MCF7 breast) was over 100 µM. The GI50 (T-47D breast) was over 100 µM, the TGI (T-47D breast) was over 100 µM and the GI50 (KM12 colon) was over 100 µM. It also gave a TGI (KM12 colon) of over 100 µM, a GI50 (M14 melanoma) of over 100 µM and a TGI (M14 melanoma) of over 100 µM. It also gave a GI50 (A498 renal) of over 100 µM, a TGI (A498 renal) of over 100 µM and a GI50 (HCT-15 colon) of over 100 µM. For the same molecule, the TGI (HCT-15 colon) was over 100 µM, the GI50 (EKVX NSCLC) was over 100 µM and the TGI (EKVX NSCLC) was over 100 µM. For the same molecule, the GI50 (HOP-92 NSCLC) was over 100 µM, the TGI (HOP-92 NSCLC) was over 100 µM and the GI50 (SK-MEL-28 melanoma) was over 100 µM. It also gave a TGI (SK-MEL-28 melanoma) of over 100 µM, a GI50 ([…]-0 renal) of over 100 µM and a TGI (786-0 renal) of over 100 µM. It also gave a GI50 (COLO 205 colon) of over 100 µM, a TGI (COLO 205 colon) of over 100 µM and a GI50 (SK-MEL-5 melanoma) of over 100 µM. For the same molecule, the TGI (SK-MEL-5 melanoma) was over 100 µM, the GI50 (HCC-2998 colon) was over 100 µM and the TGI (HCC-2998 colon) was over 100 µM. It also gave a GI50 (HL-60(TB) leukemia) of over 100 µM, a TGI (HL-60(TB) leukemia) of over 100 µM and a GI50 (SNB-19 CNS) of over 100 µM. For the same molecule, the TGI (SNB-19 CNS) was over 100 µM, the GI50 (ACHN renal) was over 100 µM and the TGI (ACHN renal) was over 100 µM. For the same molecule, the GI50 (SF-295 CNS) was over 100 µM, the TGI (SF-295 CNS) was over 100 µM and the GI50 (MDA-MB-468 breast) was over 100 µM. The TGI (MDA-MB-468 breast) was over 100 µM, the GI50 (NCI-H460 NSCLC) was over 100 µM and the TGI (NCI-H460 NSCLC) was over 100 µM. It also gave a GI50 (SN12C renal) of over 100 µM, a TGI (SN12C renal) of over 100 µM and a GI50 (MOLT-4 leukemia) of over 100 µM. The TGI (MOLT-4 leukemia) was over 100 µM, the GI50 (NCI/ADR-RES ovarian) was over 100 µM and the TGI (NCI/ADR-RES ovarian) was over 100 µM. It also gave a GI50 (A549 NSCLC) of over 100 µM, a TGI (A549 NSCLC) of over 100 µM and a GI50 (NCI-H226 lung) of over 100 µM. For the same molecule, the TGI (NCI-H226 lung) was over 100 µM, the GI50 (TK-10 renal) was over 100 µM and the TGI (TK-10 renal) was over 100 µM. The GI50 (MDA-MB-435 melanoma) was over 100 µM, the TGI (MDA-MB-435 melanoma) was over 100 µM and the GI50 (MALME-3M melanoma) was over 100 µM. The TGI (MALME-3M melanoma) was over 100 µM, the GI50 (SW-620 colon) was over 100 µM and the TGI (SW-620 colon) was over 100 µM. For the same molecule, the GI50 (RPMI-8226 leukemia) was over 100 µM, the TGI (RPMI-8226 leukemia) was over 100 µM and the GI50 (CAKI-1 renal) was over 100 µM. The TGI (CAKI-1 renal) was over 100 µM, the GI50 (DU-145 prostate) was over 100 µM and the TGI (DU-145 prostate) was over 100 µM. The GI50 (NCI-H322M lung) was over 100 µM, the TGI (NCI-H322M lung) was over 100 µM and the GI50 (OVCAR-4 ovarian) was over 100 µM. It also gave a TGI (OVCAR-4 ovarian) of over 100 µM, a GI50 (CCRF-CEM leukemia) of over 100 µM and a TGI (CCRF-CEM leukemia) of over 100 µM. It also gave a GI50 (SF-268 CNS) of over 100 µM, a TGI (SF-268 CNS) of over 100 µM and a GI50 (NCI-H23 lung) of over 100 µM. For the same molecule, the TGI (NCI-H23 lung) was over 100 µM, the GI50 (SF-539 CNS) was over 100 µM and the TGI (SF-539 CNS) was over 100 µM. It also gave a GI50 (UO-31 renal) of over 100 µM, a TGI (UO-31 renal) of over 100 µM and a GI50 (SR leukemia) of over 100 µM. For the same molecule, the TGI (SR leukemia) was over 100 µM, the GI50 (HS 578T breast) was over 100 µM and the TGI (HS 578T breast) was over 100 µM. For the same molecule, the GI50 (OVCAR-3 ovarian) was over 100 µM, the TGI (OVCAR-3 ovarian) was over 100 µM and the GI50 (UACC-257 melanoma) was over 100 µM. The TGI (UACC-257 melanoma) was over 100 µM, the GI50 (BT-549 breast) was over 100 µM and the TGI (BT-549 breast) was over 100 µM. The GI50 (NCI-H522 lung) was over 100 µM, the TGI (NCI-H522 lung) was over 100 µM and the GI50 (OVCAR-8 ovarian) was over 100 µM. The TGI (OVCAR-8 ovarian) was over 100 µM, the GI50 (OVCAR-5 ovarian) was over 100 µM and the TGI (OVCAR-5 ovarian) was over 100 µM. For the same molecule, the GI50 (K-562 leukemia) was over 100 µM, the TGI (K-562 leukemia) was over 100 µM and the GI50 (LOX IMVI melanoma) was over 100 µM. The TGI (LOX IMVI melanoma) was over 100 µM, the GI50 (MDA-MB-231 breast) was over 100 µM and the TGI (MDA-MB-231 breast) was over 100 µM. It also gave a GI50 (UACC-62 melanoma) of over 100 µM, a TGI (UACC-62 melanoma) of over 100 µM and a GI50 (RXF 393 renal) of over 100 µM. For the same molecule, the TGI (RXF 393 renal) was over 100 µM, the GI50 (SK-OV-3 ovarian) was over 100 µM and the TGI (SK-OV-3 ovarian) was over 100 µM.
